# Measurements: PubChem BioAssay (NCI)
#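 These data come from cells grown in 96-well plates and exposed to compound for 48 hours at five concentrations. GI50: concentration for 50% inhibition of growth. TGI: total growth inhibition.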
# What was measured:
# Assay in all cases: DTP human tumour cell line panel, 48 h
# [1] = tested on: 786-0 renal
# [2] = tested on: A498 renal
# [3] = tested on: A549 NSCLC
# [4] = tested on: ACHN renal
# [5] = tested on: BT-549 breast
# [6] = tested on: CAKI-1 renal
# [7] = tested on: CCRF-CEM leukemia
# [8] = tested on: COLO 205 colon
# [9] = tested on: DU-145 prostate
# [10] = tested on: EKVX NSCLC
# [11] = tested on: HCC-2998 colon
# [12] = tested on: HCT-116 colon
# [13] = tested on: HCT-15 colon
# [14] = tested on: HL-60(TB) leukemia
# [15] = tested on: HOP-62 NSCLC
# [16] = tested on: HOP-92 NSCLC
# [17] = tested on: HS 578T breast
# [18] = tested on: HT29 colon
# [19] = tested on: IGROV1 ovarian
# [20] = tested on: K-562 leukemia
# [21] = tested on: KM12 colon
# [22] = tested on: LOX IMVI melanoma
# [23] = tested on: M14 melanoma
# [24] = tested on: MALME-3M melanoma
# [25] = tested on: MCF7 breast
# [26] = tested on: MDA-MB-231 breast
# [27] = tested on: MDA-MB-435
# [28] = tested on: MOLT-4 leukemia
# [29] = tested on: NCI-H226 lung
# [30] = tested on: NCI-H23 lung
# [31] = tested on: NCI-H460 lung
# [32] = tested on: NCI-H522 lung
# [33] = tested on: NCI/ADR-RES ovarian
# [34] = tested on: OVCAR-3 ovarian
# [35] = tested on: OVCAR-4 ovarian
# [36] = tested on: OVCAR-5 ovarian
# [37] = tested on: OVCAR-8 ovarian
# [38] = tested on: PC-3 prostate
# [39] = tested on: RPMI-8226 leukemia
# [40] = tested on: RXF 393 renal
# [41] = tested on: SF-268 CNS
# [42] = tested on: SF-295 CNS
# [43] = tested on: SF-539 CNS
# [44] = tested on: SK-MEL-2 melanoma
# [45] = tested on: SK-MEL-28 melanoma
# [46] = tested on: SK-MEL-5 melanoma
# [47] = tested on: SK-OV-3 ovarian
# [48] = tested on: SNB-19 CNS
# [49] = tested on: SNB-75 CNS
# [50] = tested on: SR leukemia
# [51] = tested on: SW-620 colon
# [52] = tested on: T-47D breast
# [53] = tested on: TK-10 renal
# [54] = tested on: U251 CNS
# [55] = tested on: UACC-257 melanoma
# [56] = tested on: UO-31 renal
# [57] = tested on: SN12C renal
# [58] = tested on: UACC-62 melanoma
smiles,measurement,setting,value
COC(=O)[C@]12CC[C@@H](C)[C@H](C)[C@@H]1C1=CC[C@@H]3[C@@]4(C)C[C@@H](OC(C)=O)[C@H](O)[C@@](C)(CO)[C@@H]4[C@H](O)C[C@@]3(C)[C@]1(C)CC2,GI50,[1],14.5 µM
same,TGI,[1],29.8 µM
same,GI50,[2],11.9 µM
same,TGI,[2],24.7 µM
same,GI50,[3],6.39 µM
same,TGI,[3],20.8 µM
same,GI50,[4],10.4 µM
same,TGI,[4],24.5 µM
same,GI50,[5],15 µM
same,TGI,[5],29.8 µM
same,GI50,[6],10.1 µM
same,TGI,[6],21.9 µM
same,GI50,[7],12.8 µM
same,TGI,[7],36.5 µM
same,GI50,[8],11.6 µM
same,TGI,[8],25.9 µM
same,GI50,[9],13 µM
same,TGI,[9],26.4 µM
same,GI50,[10],10.5 µM
same,TGI,[10],24.6 µM
same,GI50,[11],12 µM
same,TGI,[11],26.7 µM
same,GI50,[12],11.8 µM
same,TGI,[12],25.4 µM
same,GI50,[13],7.74 µM
same,TGI,[13],22.9 µM
same,GI50,[14],13.9 µM
same,TGI,[14],31.6 µM
same,GI50,[15],14.7 µM
same,TGI,[15],29.5 µM
same,GI50,[16],11.3 µM
same,TGI,[16],24.3 µM
same,GI50,[17],11.9 µM
same,TGI,[17],29.6 µM
same,GI50,[18],5.79 µM
same,TGI,[18],20.4 µM
same,GI50,[19],8.87 µM
same,TGI,[19],24.8 µM
same,GI50,[20],9.18 µM
same,TGI,[20],27.4 µM
same,GI50,[21],9.95 µM
same,TGI,[21],26.7 µM
same,GI50,[22],10.4 µM
same,TGI,[22],23.6 µM
same,GI50,[23],8.14 µM
same,TGI,[23],22.2 µM
same,GI50,[24],17.2 µM
same,TGI,[24],33 µM
same,GI50,[25],4.95 µM
same,TGI,[25],20.9 µM
same,GI50,[26],8.95 µM
same,TGI,[26],23.4 µM
same,GI50,[27],12.6 µM
same,TGI,[27],26 µM
same,GI50,[28],5.82 µM
same,TGI,[28],22 µM
same,GI50,[29],16.3 µM
same,TGI,[29],38.2 µM
same,GI50,[30],13.6 µM
same,TGI,[30],30 µM
same,GI50,[31],10.6 µM
same,TGI,[31],26.3 µM
same,GI50,[32],11.2 µM
same,TGI,[32],26.2 µM
same,GI50,[33],13.2 µM
same,TGI,[33],29.5 µM
same,GI50,[34],13.4 µM
same,TGI,[34],29.9 µM
same,GI50,[35],12 µM
same,TGI,[35],27 µM
same,GI50,[36],13.2 µM
same,TGI,[36],27.7 µM
same,GI50,[37],12.2 µM
same,TGI,[37],30.4 µM
same,GI50,[38],7.53 µM
same,TGI,[38],20.5 µM
same,GI50,[39],7.86 µM
same,TGI,[39],31.7 µM
same,GI50,[40],11 µM
same,TGI,[40],26.4 µM
same,GI50,[41],10.8 µM
same,TGI,[41],28.2 µM
same,GI50,[42],11.6 µM
same,TGI,[42],25.1 µM
same,GI50,[43],14.8 µM
same,TGI,[43],29.4 µM
same,GI50,[44],17.7 µM
same,TGI,[44],34.1 µM
same,GI50,[45],13 µM
same,TGI,[45],28.6 µM
same,GI50,[46],12.9 µM
same,TGI,[46],26 µM
same,GI50,[47],16.6 µM
same,TGI,[47],30.7 µM
same,GI50,[48],14.3 µM
same,TGI,[48],31.3 µM
same,GI50,[49],10.2 µM
same,TGI,[49],23.1 µM
same,GI50,[50],7.62 µM
same,TGI,[50],25.5 µM
same,GI50,[51],16 µM
same,TGI,[51],35.6 µM
same,GI50,[52],12.4 µM
same,TGI,[52],28.7 µM
same,GI50,[53],15 µM
same,TGI,[53],29 µM
same,GI50,[54],10.7 µM
same,TGI,[54],23.9 µM
same,GI50,[55],13.4 µM
same,TGI,[55],28.1 µM
same,GI50,[56],3.58 µM
same,TGI,[56],17.1 µM
CCCCCCCCn1ccc2cc(NC(=O)Cn3cc(CN4CCN(CC)CC4)nn3)ccc21,GI50,[1],1.61 µM
same,TGI,[1],3.11 µM
same,GI50,[2],2.07 µM
same,TGI,[2],4.97 µM
same,GI50,[3],1.99 µM
same,TGI,[3],4.1 µM
same,GI50,[4],1.82 µM
same,TGI,[4],3.47 µM
same,GI50,[5],1.76 µM
same,TGI,[5],4.19 µM
same,GI50,[6],1.8 µM
same,TGI,[6],3.43 µM
same,GI50,[7],3.06 µM
same,TGI,[7],10.3 µM
same,GI50,[8],1.8 µM
same,TGI,[8],3.47 µM
same,GI50,[9],3.4 µM
same,TGI,[9],11.4 µM
same,GI50,[10],1.81 µM
same,TGI,[10],4.65 µM
same,GI50,[11],1.84 µM
same,TGI,[11],3.43 µM
same,GI50,[12],1.7 µM
same,TGI,[12],3.51 µM
same,GI50,[13],1.78 µM
same,TGI,[13],3.79 µM
same,GI50,[14],1.97 µM
same,TGI,[14],4.14 µM
same,GI50,[15],1.7 µM
same,TGI,[15],3.33 µM
same,GI50,[16],1.36 µM
same,TGI,[16],2.9 µM
same,GI50,[17],2.14 µM
same,TGI,[17],5.54 µM
same,GI50,[18],2 µM
same,TGI,[18],4.39 µM
same,GI50,[19],2.17 µM
same,TGI,[19],5.98 µM
same,GI50,[20],2.05 µM
same,TGI,[20],4.34 µM
same,GI50,[21],2.08 µM
same,TGI,[21],4.74 µM
same,GI50,[22],1.72 µM
same,TGI,[22],3.2 µM
same,GI50,[23],1.9 µM
same,TGI,[23],3.67 µM
same,GI50,[24],1.68 µM
same,TGI,[24],3.17 µM
same,GI50,[25],1.82 µM
same,TGI,[25],3.73 µM
same,GI50,[26],1.75 µM
same,TGI,[26],3.38 µM
same,GI50,[27],1.78 µM
same,TGI,[27],3.32 µM
same,GI50,[28],2.58 µM
same,TGI,[28],6.68 µM
same,GI50,[29],1.59 µM
same,TGI,[29],3.1 µM
same,GI50,[30],1.96 µM
same,TGI,[30],4.14 µM
same,GI50,[31],1.94 µM
same,TGI,[31],3.68 µM
same,GI50,[32],1.89 µM
same,TGI,[32],3.84 µM
same,GI50,[33],12.2 µM
same,TGI,[33],27.7 µM
same,GI50,[34],2.7 µM
same,TGI,[34],8.25 µM
same,GI50,[35],6.46 µM
same,TGI,[35],19.2 µM
same,GI50,[36],2.36 µM
same,TGI,[36],6.39 µM
same,GI50,[37],2.33 µM
same,TGI,[37],5.83 µM
same,GI50,[38],2.06 µM
same,TGI,[38],5.03 µM
same,GI50,[39],2.28 µM
same,TGI,[39],5.39 µM
same,GI50,[40],1.48 µM
same,TGI,[40],3.04 µM
same,GI50,[41],1.9 µM
same,TGI,[41],4.01 µM
same,GI50,[42],1.87 µM
same,TGI,[42],3.7 µM
same,GI50,[43],1.68 µM
same,TGI,[43],3.17 µM
same,GI50,[44],2.01 µM
same,TGI,[44],3.89 µM
same,GI50,[46],1.75 µM
same,TGI,[46],3.14 µM
same,GI50,[47],1.78 µM
same,TGI,[47],3.49 µM
same,GI50,[57],1.82 µM
same,TGI,[57],3.76 µM
same,GI50,[48],1.9 µM
same,TGI,[48],3.77 µM
same,GI50,[49],1.52 µM
same,TGI,[49],2.98 µM
same,GI50,[50],3.35 µM
same,TGI,[50],11.8 µM
same,GI50,[51],1.9 µM
same,TGI,[51],3.62 µM
same,GI50,[52],1.81 µM
same,TGI,[52],3.56 µM
same,GI50,[53],1.77 µM
same,TGI,[53],3.36 µM
same,GI50,[54],1.77 µM
same,TGI,[54],3.26 µM
same,GI50,[55],1.83 µM
same,TGI,[55],3.65 µM
same,GI50,[58],1.91 µM
same,TGI,[58],3.5 µM
same,GI50,[56],1.46 µM
same,TGI,[56],2.79 µM
